From PubChem BioAssay (NCI)
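How tested: cells in 96-well plates exposed to compound for 48 hours at five concentrations. TGI denotes the concentration required for complete inhibition of growth.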 Where a SMILES comes first, the peptide text is derived from it. [ ]: non-standard residue; d: D form. The star is where a group is joined. Phe(4-NO2) = N[CH](Cc1ccc([N+](=O)[O-])cc1)C(=O)O; Cbz = O=C(OCc1ccccc1)*

Legend:
Assay in all cases: NCI anticancer screen, dose series, 48 h
SNB-75 CNS = test system: SNB-75 CNS
RXF 393 renal = test system: RXF 393 renal
UO-31 renal = test system: UO-31 renal
BT-549 breast = test system: BT-549 breast
786-0 renal = test system: 786-0 renal
COLO 205 colon = test system: COLO 205 colon
SK-OV-3 ovarian = test system: SK-OV-3 ovarian
HS 578T breast = test system: HS 578T breast
CCRF-CEM leukemia = test system: CCRF-CEM leukemia
LOX IMVI melanoma = test system: LOX IMVI melanoma
HCT-116 colon = test system: HCT-116 colon
SK-MEL-5 melanoma = test system: SK-MEL-5 melanoma
HOP-92 NSCLC = test system: HOP-92 NSCLC
OVCAR-5 ovarian = test system: OVCAR-5 ovarian
HL-60(TB) leukemia = test system: HL-60(TB) leukemia
SK-MEL-2 melanoma = test system: SK-MEL-2 melanoma
T-47D breast = test system: T-47D breast

| Structure (SMILES) | TGI (SNB-75 CNS) [µM] | TGI (RXF 393 renal) [µM] | TGI (UO-31 renal) [µM] | TGI (BT-549 breast) [µM] | TGI (786-0 renal) [µM] | TGI (COLO 205 colon) [µM] | TGI (SK-OV-3 ovarian) [µM] | TGI (HS 578T breast) [µM] | TGI (CCRF-CEM leukemia) [µM] | TGI (LOX IMVI melanoma) [µM] | TGI (HCT-116 colon) [µM] | TGI (SK-MEL-5 melanoma) [µM] | TGI (HOP-92 NSCLC) [µM] | TGI (OVCAR-5 ovarian) [µM] | TGI (HL-60(TB) leukemia) [µM] | TGI (SK-MEL-2 melanoma) [µM] | TGI (T-47D breast) [µM] |
| --- | --- | --- | --- | --- | --- | --- | --- | --- | --- | --- | --- | --- | --- | --- | --- | --- | --- |
| Fc1nc(-c2c3ccccc3c3sc4ccccc4n23)nc(N2CCOCCOCCOCCOCC2)n1 | 5.87 | 51.6 | > 100 | > 100 | > 100 | > 100 | > 100 | > 100 | 93.4 | > 100 | > 100 | > 100 | 93 | > 100 |  |  |  |
| CCOC(=O)CCC(NC(=O)OCc1ccccc1)C(=O)NC(CCC(=O)OCC)C(=O)NC(CCC(=O)OCC)C(=O)NC(CCC(=O)OCC)C(=O)NC(CCC(=O)OCC)C(=O)NC(Cc1ccc([N+](=O)[O-])cc1)C(=O)NC(CCC(=O)OCC)C(=O)NC(CCC(=O)OCC)C(=O)NC(CCC(=O)OCC)C(=O)NC(CCC(=O)OCC)C(=O)NC(CCC(=O)OCC)C(=O)OCC (centres undefined) (Cbz-E(OEt)E(OEt)E(OEt)E(OEt)E(OEt)[Phe(4-NO2)]E(OEt)E(OEt)E(OEt)E(OEt)E(OEt)-OEt; configuration not given here) | > 50 | > 50 | > 50 | > 50 | > 50 | > 50 | > 50 | > 50 | > 50 | > 50 |  | > 50 |  | > 50 | > 50 | > 50 | > 50 |
| O=[N+]([O-])/C(C(Cl)=C(Cl)Cl)=C(\NCc1ccccc1)Sc1ccccc1 | 63.3 |  | 38.3 | 38.7 | > 100 | 33.2 | > 100 | 36 | > 100 | 26.6 | > 100 |  |  | > 100 |  | 84.7 | 71.7 |
| CCN1C(c2ccccc2)=CC(c2ccccc2)(C(Cl)(Cl)Cl)C=C1c1ccccc1 | > 100 | 72.2 | > 100 |  | > 100 |  |  | > 100 | > 100 | 56.7 | 29.3 | 4.46 | 25.8 | 79 | 2.73 |  | 2.29 |
| O=C1CSc2ccnc(=O)n21 | > 100 | > 100 | > 100 | > 100 | > 100 | > 100 | > 100 | > 100 | > 100 |  | > 100 | > 100 | > 100 | > 100 | > 100 |  |  |
| CSCCCNC(=O)c1csc(-c2csc(CCNC(=O)CNC(=O)OC(C)(C)C)n2)n1 | > 100 | > 100 | > 100 | > 100 | > 100 | > 100 | > 100 | > 100 | > 100 | > 100 | > 100 | > 100 | > 100 | > 100 |  | > 100 |  |
| CCOc1ccc(NC(=O)/C=C/c2ccco2)cc1 | > 100 | > 100 | > 100 | > 100 | > 100 | > 100 | > 100 | > 100 | > 100 | > 100 | > 100 | > 100 |  | > 100 | 44.5 | > 100 |  |
| C=CCNC(=S)NC=C(C(N)=O)C(N)=O | > 100 | > 100 | > 100 |  | > 100 | > 100 | > 100 | > 100 | > 100 | > 100 | > 100 | > 100 |  | > 100 | > 100 | > 100 | > 100 |
| O=C1/C(=C/c2ccc([N+](=O)[O-])cc2)Oc2cc(O)ccc21 | > 100 | > 100 | 51 | 78.7 | 70.6 |  | 71.6 | 47.9 | 79.2 |  | > 100 | 48 |  |  | 37.4 |  | > 100 |
| O=C(O)CNc1ncc2c(n1)-c1ccccc1OC2 | > 100 | > 100 | > 100 |  | > 100 | > 100 | > 100 | > 100 | > 100 | > 100 | > 100 | > 100 | > 100 | > 100 | > 100 | > 100 |  |
| c1ccc(Nc2nnc(-c3ccccc3Nc3ccccc3-c3nnc(Nc4ccccc4)s3)s2)cc1 | > 100 | > 100 | > 100 | > 100 | > 100 | > 100 |  |  | > 100 | > 100 | > 100 | > 100 | > 100 | > 100 | > 100 | > 100 |  |
| NC(=S)N/N=C1\CCc2ccccc2C1 |  | > 100 | > 100 | > 100 | > 100 | > 100 | > 100 |  | > 100 | > 100 | > 100 |  | > 100 | > 100 | > 100 |  | > 100 |
| COc1cccc(C2c3cc4c(cc3OC(N3CCCC3)C2c2ccccc2)OCO4)c1O (centres undefined) |  |  | 20.1 |  | 27.8 | 27.3 |  | 8.53 | 24.6 | 46.2 | 17.7 | 22.6 |  | 75.2 |  | 27.9 | > 100 |
| COc1ccc(-n2c(C)nc3ccc(NC4OC(COC(C)=O)C(OC(C)=O)C(OC(C)=O)C4OC(C)=O)cc3c2=O)cc1 (centres undefined) | > 100 | 87.4 | > 100 | > 100 | 65.3 | 49.4 |  | > 100 |  | > 100 | 46.5 | > 100 |  | > 100 | 48.7 | > 100 | > 100 |
| CC(C)(C)C1CC[C@H](O)[C@H]([C@@H](O)CC2CC(=O)N(c3ccccc3)C(=O)C2)C1 (some centres undefined) | > 100 | > 100 | > 100 | > 100 | > 100 |  |  | > 100 | > 100 | > 100 | > 100 | > 100 | > 100 | > 100 | 77.5 |  |  |
| CCOC(=O)c1sc2c(c1OC(=O)c1ccco1)c(=O)n(-c1ccccc1)c(=S)n2-c1ccccc1 | > 100 | 62 | 2.71 |  | > 100 | 38.1 | > 100 | > 100 | > 100 | 61.7 | > 100 | 32.1 | 71.3 | > 100 | 52.2 |  | > 100 |
| O=C(NC1C(=O)NC(CCc2ccccc2)NC1=O)OCc1ccccc1 (centres undefined) | > 100 | > 100 | > 100 |  | > 100 | > 100 |  |  | > 100 | > 100 | > 100 | > 100 | > 100 | > 100 | > 100 |  | > 100 |
| Cc1cc(O)c(C(O)c2ccccn2)cc1O (centres undefined) | 31.9 | 30.2 | 33.5 |  | 34.5 | 23.4 |  | > 100 | 38.4 | 30.8 | 31.2 | 38.4 |  | 33.8 | 53 |  |  |
| CN(C)/C=N/S(=O)(=O)c1nn2c(C=O)c(-c3ccc(-c4ccccc4)cc3)nc2s1 | 18.3 | 4.49 | 2.73 | 3.05 | 2.99 |  | 36.2 |  | 0.647 | 2.76 | 2.99 | 3.04 | 10.1 | 25.3 | 0.342 | 8.24 | 5.57 |
| O=C(O)c1cc(-c2ccc3cc(O)c(O)cc3c2)ccc1O | > 12.5 |  | > 12.5 | > 12.5 | > 12.5 | > 12.5 | > 12.5 | > 12.5 | > 12.5 |  | > 12.5 | > 12.5 |  | > 12.5 | > 12.5 | > 12.5 | > 12.5 |
| CC(C)CC1C(=O)OC(C)(C)OC1=O | > 100 | > 100 | > 100 | > 100 | > 100 | > 100 | > 100 | > 100 | > 100 | > 100 | > 100 | > 100 |  | > 100 |  | > 100 | > 100 |
| CCCCCCCCC#CCCCCCCC(F)C(=O)O (centres undefined) | > 100 | > 100 | > 100 |  | > 100 | > 100 | > 100 | > 100 | > 100 | > 100 | > 100 | > 100 | > 100 | > 100 | 83.6 | > 100 | > 100 |
| COC(=O)/C=C1/OC(c2ccccc2)=C(Br)C1=O | > 100 | > 100 | > 100 | 53.4 | 81.6 | > 100 | > 100 |  | > 100 | 43.3 | > 100 | > 100 | > 100 | > 100 | > 100 |  | > 100 |
| O=C1NCC2(CCN(CC3COc4ccccc4O3)CC2)N1c1ccccc1 (centres undefined) | > 100 | > 100 | > 100 |  | > 100 | > 100 | > 100 | > 100 | > 100 | > 100 | > 100 | > 100 |  | > 100 | > 100 | > 100 | > 100 |
| CCOC(=O)C1Cc2ccc(C)cc2C1=O (centres undefined) | > 100 |  | > 100 |  | > 100 | > 100 | > 100 | > 100 | > 100 | > 100 | > 100 | > 100 | > 100 | > 100 | 69.9 | > 100 | > 100 |
| COc1ccc(-n2c(C)nc3ccc(NC4OCC(OC(C)=O)C(OC(C)=O)C4OC(C)=O)cc3c2=O)cc1 (centres undefined) | > 100 | > 100 | > 100 | > 100 | > 100 | > 100 |  | > 100 |  | > 100 | > 100 | > 100 |  | > 100 | > 100 | > 100 | > 100 |
| CN(C)Cc1cc(C(=O)/C=C/c2ccc(Cl)cc2Cl)cc(CN(C)C)c1O | 16.7 | 10.7 | 6.01 |  | 13.5 | 2.76 |  | 15.8 | 8.88 | 2.49 | 11.7 | 5.66 | 8.55 | 28.7 | 8.67 |  | 22.1 |
| CCOC(=O)/C(=C\n1c(=O)sc2ccccc21)C(=O)c1ccccc1 | > 100 | > 100 | > 100 |  | > 100 | > 100 | > 100 | > 100 | > 100 | > 100 | > 100 | > 100 |  | > 100 | > 100 | > 100 | > 100 |
| COc1cc(Br)c(/C=N/N=C(\N)NO)cc1OC | 65.9 | 54.4 | > 100 |  | 92.8 | 25.6 | 68.8 |  | > 100 | 61.2 | 43.8 | 21.2 | 90.5 | > 100 | 52.6 | > 100 |  |
| CC(=O)/C=C1/C(=O)C(CC(C)C)=C1CC(C)C | > 100 | > 100 | > 100 |  | > 100 | > 100 | > 100 | > 100 | > 100 | > 100 | > 100 | > 100 | > 100 | > 100 | > 100 | > 100 | > 100 |
